Measurements as given in PubChem BioAssay (NCI).
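How tested: cells in 96-well plates exposed to compound for 48 hours at five concentrations. GI50 = concentration required for 50% inhibition of growth. TGI is the concentration that stops growth completely.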

Legend:
Assay in all cases: NCI anticancer screen, dose series, 48 h
786-0 renal = test system: 786-0 renal
A549 NSCLC = test system: A549 NSCLC
ACHN renal = test system: ACHN renal
BT-549 breast = test system: BT-549 breast
HOP-62 NSCLC = test system: HOP-62 NSCLC
IGROV1 ovarian = test system: IGROV1 ovarian
MDA-MB-435 = test system: MDA-MB-435
SF-295 CNS = test system: SF-295 CNS
SK-OV-3 ovarian = test system: SK-OV-3 ovarian
CCRF-CEM leukemia = test system: CCRF-CEM leukemia

Row | Structure (SMILES) | GI50 (786-0 renal) | TGI (786-0 renal) | GI50 (A549 NSCLC) | TGI (A549 NSCLC) | GI50 (ACHN renal) | TGI (ACHN renal) | GI50 (BT-549 breast) | TGI (BT-549 breast) | GI50 (HOP-62 NSCLC) | TGI (HOP-62 NSCLC) | GI50 (IGROV1 ovarian) | TGI (IGROV1 ovarian) | GI50 (MDA-MB-435) | TGI (MDA-MB-435) | GI50 (SF-295 CNS) | TGI (SF-295 CNS) | GI50 (SK-OV-3 ovarian) | TGI (SK-OV-3 ovarian) | TGI (CCRF-CEM leukemia) | GI50 (CCRF-CEM leukemia)
1 | CC(NC(=O)Cc1ccc(C(F)(F)P(=O)(OCc2ccc([N+](=O)[O-])o2)N(C)CCCCCl)cc1)c1ccc(OCC2CCCCC2)c(C(N)=O)c1 (centres undefined) | 1.77 µM | 3.97 µM | 14.5 µM | 58.7 µM | 8.77 µM | 39.3 µM | 5.27 µM | 13.5 µM | 4.08 µM | 12.1 µM | 9.93 µM | 25.5 µM | 2.69 µM | 6.73 µM | 4.52 µM | 12.3 µM | 19.3 µM | 43.5 µM |  | 
2 | CN/N=C(/c1nc2ccc([N+](=O)[O-])cc2[nH]c1=O)C(O)c1ccc(C(O)/C(=N\NC)c2nc3ccc([N+](=O)[O-])cc3[nH]c2=O)cc1 (centres undefined) |  | > 100 µM |  | > 100 µM |  | > 100 µM |  |  |  | > 100 µM |  | > 100 µM |  |  |  | > 100 µM |  | > 100 µM | > 100 µM | 
3 | COc1cc(C2=NN(C(C)=O)C(c3cc(OC)c(OC)c(OC)c3)C2)ccc1O (centres undefined) | 0.458 µM | > 100 µM | 0.579 µM | > 100 µM | 0.614 µM | > 100 µM | 1.09 µM | > 100 µM | 0.571 µM | > 100 µM | 0.584 µM | > 100 µM |  |  | 0.216 µM | > 100 µM | 0.307 µM | > 100 µM |  | 0.342 µM
4 | O=C1CCC2(c3ccccc3)Nc3ccccc3N12 (centres undefined) |  | > 100 µM |  | > 100 µM |  | > 100 µM |  |  |  | > 100 µM |  | > 100 µM |  |  |  | > 100 µM |  |  | > 100 µM | 
5 | Cc1ccc(S(=O)(=O)c2nc(-c3ccccc3)oc2S(C)(=O)=O)cc1 | 1.66 µM | 3.19 µM | 14.2 µM | 27.3 µM | 1.76 µM | 3.13 µM | 1.85 µM | 3.72 µM | 13.3 µM | 26.1 µM |  |  | 2.11 µM | 4.58 µM | 12.2 µM | 24.6 µM | 15.9 µM | 29.3 µM | 8.16 µM | 2.83 µM
6 | CC1=Nc2ccccc2SC(c2c(Cl)cccc2Cl)C1 (centres undefined) |  | 1.49 µM |  | 4.43 µM |  | 3.19 µM |  |  |  | 3.76 µM |  | 3.31 µM |  |  |  | 2.79 µM |  | 6.44 µM | 2.26 µM | 
7 | Clc1ccccc1CN1COc2c(ccc3cccnc23)C1 |  | 14.8 µM |  | 14.2 µM |  | 13.2 µM |  |  |  | 7.25 µM |  | 11.6 µM |  |  |  | 10.6 µM |  | 19.9 µM | 1.74 µM | 
8 | CC(=O)c1ccc(NC(=O)C(=O)C(C(=O)/C=C/c2ccccc2)C2OC(=O)c3ccccc32)cc1 (centres undefined) |  | > 100 µM |  | > 100 µM |  | > 100 µM |  |  |  | > 100 µM |  | > 100 µM |  |  |  | > 100 µM |  | > 100 µM | > 100 µM | 
9 | CC1(C)OC(=S)N(c2ccccc2)C12C=Cc1cc3ccccc3nc1S2 (centres undefined) |  | > 100 µM |  | > 100 µM |  | > 100 µM |  |  |  | > 100 µM |  | > 100 µM |  |  |  |  |  | > 100 µM | > 100 µM | 
